Literature values in patent publication US20100221356A1, “PHARMACEUTICAL COMPOSITION FOR ONCE A DAY ADMINISTRATION OF TROSPIUM CHLORIDE” (SUPERNUS PHARMACEUTICALS, INC., priority 2003, published 2010).

Legend:
[1] = 40 mg immediate release dose once daily compared to 20 mg given twice daily
[2] = water

SMILES: O=C(O[C@H]1C[C@H]2CC[C@@H](C1)[N+]21CCCC1)C(O)(c1ccccc1)c1ccccc1 [Trospium chloride]
- oral bioavailability (oral): approximately 10%
- oral bioavailability with the intake of high-fat food (oral, high-fat food): significantly reduced
- time to maximum blood level (orally administered): 5 to 6 h
- overall incidence of adverse events [1]: higher overall incidence of adverse events
- saturation solubility [2]: 500 mg/mL
